In PMC10528299, “Targeting FAK/PYK2 with SJP1602 for Anti-Tumor Activity in Triple-Negative Breast Cancer” (Current Issues in Molecular Biology, 2023):

Assays:
Experiment in all cases: Eurofins kinase profiling
Format in all cases: biochemical
Hck(h) = molecular target: T1, Hck(h) (Homo sapiens, UniProt P08631); details: read-out: residual kinase activity Hck(h)
T1 construct: purchased Eurofins KinaseProfiler
Procedure: (§1) The kinase profiling analysis was performed at Eurofins (Poitiers, France). A total of 110 kinase assays were carried out according to Eurofins’ standard protocols. For protein kinase assays, the kinase activity was measured using Eurofins’ KinaseProfiler radiometric assay. In this assay, a panel of kinases was incubated with the test compound SJP1602 at a concentration of 1 µM, and the kinase activity was determined using radiolabeled phosphate as a substrate. Lipid and atypical kinase assays were conducted using Eurofins’ homogeneous time-resolved fluorescence assay. The same panel of kinases was incubated with SJP1602 at a concentration of 1 µM, and the activity of lipid and atypical kinases was measured using this assay.

ErbB4(h) = molecular target: T2, ErbB4(h) (Homo sapiens, UniProt Q15303); details: read-out: residual kinase activity ErbB4(h)
T2 construct: purchased Eurofins KinaseProfiler
Procedure: as §1

[1] = molecular target: T3, PI3 Kinase (p110a(E545K)/p85a)(h) (Homo sapiens, UniProt P42336, E545K); details: read-out: residual kinase activity PI3 Kinase (p110a(E545K)/p85a)(h)
T3 construct: purchased Eurofins KinaseProfiler
Procedure: as §1

CDK2/cyclinA(h) = molecular target: T4, CDK2/cyclinA(h) (Homo sapiens, UniProt P24941); details: read-out: residual kinase activity CDK2/cyclinA(h)
T4 construct: purchased Eurofins KinaseProfiler
Procedure: as §1

Flt1(h) = molecular target: T5, Flt1(h) (Homo sapiens, UniProt P17948); details: read-out: residual kinase activity Flt1(h)
T5 construct: purchased Eurofins KinaseProfiler
Procedure: as §1

MST3(h) = molecular target: T6, MST3(h) (Homo sapiens, UniProt Q9Y6E0); details: read-out: residual kinase activity MST3(h)
T6 construct: purchased Eurofins KinaseProfiler
Procedure: as §1

NIM1(h) = molecular target: T7, NIM1(h) (Homo sapiens, UniProt Q8IY84); details: read-out: residual kinase activity NIM1(h)
T7 construct: purchased Eurofins KinaseProfiler
T7 sequence (Q8IY84 whole entry): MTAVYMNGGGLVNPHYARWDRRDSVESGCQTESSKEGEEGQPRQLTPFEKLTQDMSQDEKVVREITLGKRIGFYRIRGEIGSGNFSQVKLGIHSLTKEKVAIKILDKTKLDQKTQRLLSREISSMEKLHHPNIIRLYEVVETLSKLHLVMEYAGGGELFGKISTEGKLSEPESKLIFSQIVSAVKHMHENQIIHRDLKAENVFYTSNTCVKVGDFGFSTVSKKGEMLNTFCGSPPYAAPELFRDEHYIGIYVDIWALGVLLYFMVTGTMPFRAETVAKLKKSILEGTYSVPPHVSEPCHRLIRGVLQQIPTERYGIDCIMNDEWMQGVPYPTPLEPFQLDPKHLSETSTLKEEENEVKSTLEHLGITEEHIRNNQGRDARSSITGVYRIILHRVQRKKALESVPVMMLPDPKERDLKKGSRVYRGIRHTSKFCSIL
Procedure: as §1

TAK1(h) = molecular target: T8, TAK1(h) (Homo sapiens, UniProt O43318); details: read-out: residual kinase activity TAK1(h)
T8 construct: purchased Eurofins KinaseProfiler
T8 sequence (O43318 1-303 limits assumed): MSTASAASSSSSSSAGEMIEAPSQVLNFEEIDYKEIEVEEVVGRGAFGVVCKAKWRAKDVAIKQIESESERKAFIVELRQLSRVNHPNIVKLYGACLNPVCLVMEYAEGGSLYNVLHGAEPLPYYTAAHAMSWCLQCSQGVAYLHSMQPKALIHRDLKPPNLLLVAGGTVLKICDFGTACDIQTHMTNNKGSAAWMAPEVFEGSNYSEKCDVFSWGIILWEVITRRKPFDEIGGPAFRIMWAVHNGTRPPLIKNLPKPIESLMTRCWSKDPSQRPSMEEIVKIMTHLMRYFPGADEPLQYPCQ
Procedure: as §1

Ret(h) = molecular target: T9, Ret(h) (Homo sapiens, UniProt P07949); details: read-out: residual kinase activity Ret(h)
T9 construct: purchased Eurofins KinaseProfiler
Procedure: as §1

IR(h), activated = molecular target: T10, IR(h), activated (Homo sapiens, UniProt P06213); details: 1 µM
T10 construct: purchased Eurofins KinaseProfiler
Procedure: as §1

HIPK3(h) = molecular target: T11, HIPK3(h) (Homo sapiens, UniProt Q9H422); details: read-out: residual kinase activity HIPK3(h)
T11 construct: purchased Eurofins KinaseProfiler
T11 sequence (Q9H422 whole entry): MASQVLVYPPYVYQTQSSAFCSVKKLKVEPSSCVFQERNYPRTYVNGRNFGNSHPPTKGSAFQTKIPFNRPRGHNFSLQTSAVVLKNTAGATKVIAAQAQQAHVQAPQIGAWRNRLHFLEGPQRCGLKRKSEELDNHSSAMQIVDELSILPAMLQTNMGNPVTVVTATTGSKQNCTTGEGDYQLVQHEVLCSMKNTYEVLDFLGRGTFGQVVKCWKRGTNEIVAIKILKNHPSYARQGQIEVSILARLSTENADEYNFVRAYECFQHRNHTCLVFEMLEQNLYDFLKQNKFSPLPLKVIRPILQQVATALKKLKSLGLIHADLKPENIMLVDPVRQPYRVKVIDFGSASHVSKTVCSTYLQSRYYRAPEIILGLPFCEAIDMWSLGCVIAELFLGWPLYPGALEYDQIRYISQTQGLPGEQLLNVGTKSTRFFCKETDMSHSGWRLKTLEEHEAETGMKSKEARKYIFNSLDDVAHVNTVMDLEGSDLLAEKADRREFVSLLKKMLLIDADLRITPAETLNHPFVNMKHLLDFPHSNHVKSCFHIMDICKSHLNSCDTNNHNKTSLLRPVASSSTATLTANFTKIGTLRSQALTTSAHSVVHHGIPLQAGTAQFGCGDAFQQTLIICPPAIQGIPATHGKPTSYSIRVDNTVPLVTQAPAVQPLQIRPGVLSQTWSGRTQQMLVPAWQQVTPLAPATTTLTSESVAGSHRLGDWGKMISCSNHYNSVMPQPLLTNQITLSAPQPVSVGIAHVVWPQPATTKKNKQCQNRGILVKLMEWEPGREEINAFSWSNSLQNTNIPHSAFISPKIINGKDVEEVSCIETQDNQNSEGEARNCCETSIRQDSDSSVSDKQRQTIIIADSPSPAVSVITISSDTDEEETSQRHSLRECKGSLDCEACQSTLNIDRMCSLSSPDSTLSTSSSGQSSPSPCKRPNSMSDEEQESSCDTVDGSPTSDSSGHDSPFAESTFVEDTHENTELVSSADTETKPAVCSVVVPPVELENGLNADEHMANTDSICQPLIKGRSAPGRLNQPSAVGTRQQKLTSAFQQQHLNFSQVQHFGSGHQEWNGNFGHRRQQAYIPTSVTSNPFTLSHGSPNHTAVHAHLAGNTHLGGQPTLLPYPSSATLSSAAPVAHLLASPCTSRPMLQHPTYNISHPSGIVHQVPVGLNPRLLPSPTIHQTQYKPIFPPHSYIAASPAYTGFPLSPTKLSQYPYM
Procedure: as §1

CHK2(h) = molecular target: T12, CHK2(h) (Homo sapiens, UniProt O96017); details: read-out: residual kinase activity CHK2(h)
T12 construct: purchased Eurofins KinaseProfiler
T12 sequence (O96017 whole entry): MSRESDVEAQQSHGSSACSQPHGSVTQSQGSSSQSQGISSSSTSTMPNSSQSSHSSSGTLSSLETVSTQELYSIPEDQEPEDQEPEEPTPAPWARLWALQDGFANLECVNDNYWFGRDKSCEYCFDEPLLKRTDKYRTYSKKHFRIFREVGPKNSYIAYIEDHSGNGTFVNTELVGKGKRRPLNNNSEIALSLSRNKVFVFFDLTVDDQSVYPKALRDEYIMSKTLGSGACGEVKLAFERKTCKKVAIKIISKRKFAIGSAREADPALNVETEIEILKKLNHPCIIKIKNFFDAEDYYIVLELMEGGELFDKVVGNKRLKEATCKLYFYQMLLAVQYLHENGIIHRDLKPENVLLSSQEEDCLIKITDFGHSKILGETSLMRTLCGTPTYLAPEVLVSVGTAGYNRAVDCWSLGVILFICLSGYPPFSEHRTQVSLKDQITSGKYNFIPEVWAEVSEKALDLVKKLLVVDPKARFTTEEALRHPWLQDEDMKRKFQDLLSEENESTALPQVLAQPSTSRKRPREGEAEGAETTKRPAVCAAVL
Procedure: as §1

Mer(h) = molecular target: T13, Mer(h) (Homo sapiens, UniProt Q12866); details: read-out: residual kinase activity Mer(h)
T13 construct: purchased Eurofins KinaseProfiler
T13 sequence (Q12866 21-999): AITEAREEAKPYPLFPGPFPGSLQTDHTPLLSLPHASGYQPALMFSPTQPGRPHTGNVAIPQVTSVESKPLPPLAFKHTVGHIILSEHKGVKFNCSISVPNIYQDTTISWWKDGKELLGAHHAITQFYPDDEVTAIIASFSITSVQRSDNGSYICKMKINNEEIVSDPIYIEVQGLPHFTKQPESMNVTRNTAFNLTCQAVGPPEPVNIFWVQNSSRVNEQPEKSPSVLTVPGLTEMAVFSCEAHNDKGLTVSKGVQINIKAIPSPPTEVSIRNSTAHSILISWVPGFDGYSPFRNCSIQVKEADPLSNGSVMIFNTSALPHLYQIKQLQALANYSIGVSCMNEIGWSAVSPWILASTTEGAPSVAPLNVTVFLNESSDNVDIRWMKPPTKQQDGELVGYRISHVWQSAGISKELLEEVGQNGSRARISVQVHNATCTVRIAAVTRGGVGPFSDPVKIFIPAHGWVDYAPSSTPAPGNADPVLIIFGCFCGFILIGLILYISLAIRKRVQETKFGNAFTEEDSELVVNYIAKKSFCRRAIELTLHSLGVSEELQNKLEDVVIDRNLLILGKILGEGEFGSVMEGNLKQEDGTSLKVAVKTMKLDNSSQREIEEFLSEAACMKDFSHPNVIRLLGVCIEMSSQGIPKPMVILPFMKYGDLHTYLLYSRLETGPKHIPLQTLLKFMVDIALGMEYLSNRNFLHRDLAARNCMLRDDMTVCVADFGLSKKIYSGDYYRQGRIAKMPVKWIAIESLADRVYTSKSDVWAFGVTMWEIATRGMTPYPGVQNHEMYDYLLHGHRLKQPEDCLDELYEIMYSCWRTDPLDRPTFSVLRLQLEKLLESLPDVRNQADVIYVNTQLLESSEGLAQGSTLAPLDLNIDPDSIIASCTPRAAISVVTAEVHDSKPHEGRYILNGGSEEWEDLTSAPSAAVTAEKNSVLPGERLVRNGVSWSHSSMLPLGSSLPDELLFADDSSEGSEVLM
Procedure: as §1

ROCK-I(h) = molecular target: T14, ROCK-I(h) (Homo sapiens, UniProt Q13464); details: read-out: residual kinase activity ROCK-I(h)
T14 construct: purchased Eurofins KinaseProfiler
Procedure: as §1

Flt4(h) = molecular target: T15, Flt4(h) (Homo sapiens, UniProt P35916); details: read-out: residual kinase activity Flt4(h)
T15 construct: purchased Eurofins KinaseProfiler
T15 sequence (P35916 25-1363): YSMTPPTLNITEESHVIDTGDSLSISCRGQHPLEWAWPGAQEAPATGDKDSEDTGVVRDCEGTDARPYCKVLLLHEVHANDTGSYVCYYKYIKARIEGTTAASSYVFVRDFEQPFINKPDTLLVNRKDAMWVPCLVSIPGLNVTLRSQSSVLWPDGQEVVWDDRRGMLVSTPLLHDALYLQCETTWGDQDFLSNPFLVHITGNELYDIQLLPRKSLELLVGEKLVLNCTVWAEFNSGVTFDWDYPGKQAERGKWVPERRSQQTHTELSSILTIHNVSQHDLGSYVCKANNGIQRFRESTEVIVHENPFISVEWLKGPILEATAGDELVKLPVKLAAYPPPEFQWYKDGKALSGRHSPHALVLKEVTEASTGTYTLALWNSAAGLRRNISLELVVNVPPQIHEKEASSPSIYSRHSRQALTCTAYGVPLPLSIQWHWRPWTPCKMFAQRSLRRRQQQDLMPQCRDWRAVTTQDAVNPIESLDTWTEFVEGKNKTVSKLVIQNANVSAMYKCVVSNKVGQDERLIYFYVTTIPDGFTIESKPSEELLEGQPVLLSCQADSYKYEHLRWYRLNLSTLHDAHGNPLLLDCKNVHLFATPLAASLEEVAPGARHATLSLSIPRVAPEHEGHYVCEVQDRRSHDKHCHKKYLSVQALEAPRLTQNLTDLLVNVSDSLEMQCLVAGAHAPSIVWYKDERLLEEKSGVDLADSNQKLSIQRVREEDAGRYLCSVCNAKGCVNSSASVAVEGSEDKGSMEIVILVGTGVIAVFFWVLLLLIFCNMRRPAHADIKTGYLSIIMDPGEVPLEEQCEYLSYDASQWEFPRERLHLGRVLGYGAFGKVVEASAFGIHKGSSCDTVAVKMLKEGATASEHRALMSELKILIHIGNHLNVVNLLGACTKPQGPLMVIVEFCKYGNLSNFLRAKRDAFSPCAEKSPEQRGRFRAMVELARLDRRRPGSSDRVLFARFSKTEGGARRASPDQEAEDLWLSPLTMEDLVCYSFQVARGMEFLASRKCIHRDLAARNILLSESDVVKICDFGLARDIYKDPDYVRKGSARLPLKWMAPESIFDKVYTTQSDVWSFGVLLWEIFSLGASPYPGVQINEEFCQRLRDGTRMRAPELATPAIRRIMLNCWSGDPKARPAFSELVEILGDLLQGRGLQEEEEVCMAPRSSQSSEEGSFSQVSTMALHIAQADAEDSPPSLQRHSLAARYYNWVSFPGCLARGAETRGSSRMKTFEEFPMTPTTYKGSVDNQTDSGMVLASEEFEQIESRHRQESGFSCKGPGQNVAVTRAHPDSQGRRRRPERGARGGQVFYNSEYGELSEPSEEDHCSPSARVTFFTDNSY
Procedure: as §1

CK1γ1(h) = molecular target: T16, CK1γ1(h) (Homo sapiens, UniProt Q9HCP0); details: read-out: residual kinase activity CK1γ1(h)
T16 construct: purchased Eurofins KinaseProfiler
T16 sequence (Q9HCP0 whole entry): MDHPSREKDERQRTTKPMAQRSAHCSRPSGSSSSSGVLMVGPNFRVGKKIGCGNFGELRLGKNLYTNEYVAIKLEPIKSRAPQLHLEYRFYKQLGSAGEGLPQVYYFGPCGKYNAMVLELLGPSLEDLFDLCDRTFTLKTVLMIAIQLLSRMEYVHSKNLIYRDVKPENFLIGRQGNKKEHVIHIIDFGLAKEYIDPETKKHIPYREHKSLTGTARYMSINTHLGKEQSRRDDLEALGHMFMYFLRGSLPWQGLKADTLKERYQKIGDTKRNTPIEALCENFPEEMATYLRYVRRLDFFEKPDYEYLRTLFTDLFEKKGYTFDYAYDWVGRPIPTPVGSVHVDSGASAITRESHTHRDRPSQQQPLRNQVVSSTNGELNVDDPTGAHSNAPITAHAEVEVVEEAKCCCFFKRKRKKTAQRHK
Procedure: as §1

cSRC(h) = molecular target: T17, cSRC(h) (Homo sapiens, UniProt P12931); details: read-out: residual kinase activity cSRC(h)
T17 construct: purchased Eurofins KinaseProfiler
Procedure: as §1

FGFR4(h) = molecular target: T18, FGFR4(h) (Homo sapiens, UniProt P22455); details: read-out: residual kinase activity FGFR4(h)
T18 construct: purchased Eurofins KinaseProfiler
T18 sequence (P22455 22-802): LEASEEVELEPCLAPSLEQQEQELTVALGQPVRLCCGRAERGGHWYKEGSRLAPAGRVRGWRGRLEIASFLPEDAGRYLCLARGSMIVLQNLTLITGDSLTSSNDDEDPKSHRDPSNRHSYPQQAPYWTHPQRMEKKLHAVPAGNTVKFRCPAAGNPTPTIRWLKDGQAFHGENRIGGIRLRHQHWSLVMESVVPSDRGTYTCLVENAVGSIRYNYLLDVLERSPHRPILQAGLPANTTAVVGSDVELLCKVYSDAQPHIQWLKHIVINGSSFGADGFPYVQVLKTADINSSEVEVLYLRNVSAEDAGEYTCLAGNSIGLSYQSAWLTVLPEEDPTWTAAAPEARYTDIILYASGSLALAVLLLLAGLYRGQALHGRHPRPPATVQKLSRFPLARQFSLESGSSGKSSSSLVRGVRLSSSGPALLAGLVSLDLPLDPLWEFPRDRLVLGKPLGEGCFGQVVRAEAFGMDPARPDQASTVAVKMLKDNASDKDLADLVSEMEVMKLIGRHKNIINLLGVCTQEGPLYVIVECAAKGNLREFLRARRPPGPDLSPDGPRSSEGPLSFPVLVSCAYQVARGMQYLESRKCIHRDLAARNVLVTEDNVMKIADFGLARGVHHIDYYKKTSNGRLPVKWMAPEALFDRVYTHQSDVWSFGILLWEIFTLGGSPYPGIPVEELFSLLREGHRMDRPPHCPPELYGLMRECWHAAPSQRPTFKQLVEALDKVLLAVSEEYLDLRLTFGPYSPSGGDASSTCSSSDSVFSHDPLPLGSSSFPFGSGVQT
Procedure: as §1

remaining activity at 1 µM (Hck(h)) [%]	remaining activity at 1 µM (ErbB4(h)) [%]	remaining activity at 1 µM [1] [%]	remaining activity at 1 µM (CDK2/cyclinA(h)) [%]	remaining activity at 1 µM (Flt1(h)) [%]	remaining activity at 1 µM (MST3(h)) [%]	remaining activity at 1 µM (NIM1(h)) [%]	remaining activity at 1 µM (TAK1(h)) [%]	remaining activity at 1 µM (Ret(h)) [%]	residual kinase activity IR(h), activated (IR(h), activated)	remaining activity at 1 µM (HIPK3(h)) [%]	remaining activity at 1 µM (CHK2(h)) [%]	remaining activity at 1 µM (Mer(h)) [%]	remaining activity at 1 µM (ROCK-I(h)) [%]	remaining activity at 1 µM (Flt4(h)) [%]	remaining activity at 1 µM (CK1γ1(h)) [%]	remaining activity at 1 µM (cSRC(h)) [%]	remaining activity at 1 µM (FGFR4(h)) [%]	SMILES
99	104	100	28	21	33	78	71	39	30	54	71	7	103	-3	81	72	104	CNC(=O)c1ccc(Nc2ncc(C(F)(F)F)c(NCc3nccnc3N(C)S(C)(=O)=O)n2)cc1 [VS-6063, Defactinib]
100	81	93	94	94	102	85	95	117	76	106	59	97	107	67	99	88	104	CONC(=O)c1ccccc1Nc1cc(Nc2cc(C)nn2C(C)C)ncc1Cl [GSK2256098]

SMILES	remaining activity at 1 µM (Hck(h)) [%]	remaining activity at 1 µM (ErbB4(h)) [%]	remaining activity at 1 µM [1] [%]	remaining activity at 1 µM (CDK2/cyclinA(h)) [%]	remaining activity at 1 µM (Flt1(h)) [%]	remaining activity at 1 µM (MST3(h)) [%]	remaining activity at 1 µM (NIM1(h)) [%]	remaining activity at 1 µM (TAK1(h)) [%]	remaining activity at 1 µM (Ret(h)) [%]	residual kinase activity IR(h), activated (IR(h), activated)	remaining activity at 1 µM (HIPK3(h)) [%]	remaining activity at 1 µM (CHK2(h)) [%]	remaining activity at 1 µM (Mer(h)) [%]	remaining activity at 1 µM (ROCK-I(h)) [%]	remaining activity at 1 µM (Flt4(h)) [%]	remaining activity at 1 µM (CK1γ1(h)) [%]	remaining activity at 1 µM (cSRC(h)) [%]	remaining activity at 1 µM (FGFR4(h)) [%]
CNC(=O)c1cccc(C)c1Nc1nc(Nc2ccc(N3CCN(C4C5CC6CC4CC(O)(C6)C5)CC3)cc2OC)ncc1C(F)(F)F (stereo not drawn) [SJP1602, 2-((2-((4-(4-((2s,5r)-5-hydroxyadamantan-2-yl)piperazin-1-yl)-2-methoxyphenyl)amino)-5-(trifluoromethyl)pyrimidin-4-yl)amino)-N,3-dimethylbenzamide]	105	99	98	85	106	95	95	113	111	61	100	51	60	101	104	105	99	102
